Measured values as given in patent US11530206B2, “Phenylaminopyrimidine amide autophagy inhibitors and methods of use thereof” (Deciphera Pharmaceuticals, LLC, priority 2019, dated 2022).

The compounds below were run on ULK kinase (assay: pATG13 levels of mutant BRAF A375 cells after treatment with ULK inhibitors in combination with trametinib (ELISA)). Settings: A375 malignant melanoma cells (mutant BRAF), 250 nM trametinib, overnight, pS318-ATG13.
Type: cell-based, human
Description: (§1) A375 human malignant melanoma cancer cells (20000 cells/well) were added to a 96-well tissue-culture treated plate in 100 μL of pre-warmed DMEM medium supplemented with 10% characterized fetal bovine serum (Invitrogen, Carlsbad, Calif.), 100 units/mL penicillin G, and 100 μg/mL streptomycin and allowed to grow overnight at 37° C., 5% CO2, and 95% humidity. The following day, 100 μL of media containing trametinib or DMSO as a control was added to wells. […] A dose response of a test compound (0.5 μL per well) was added. DMSO (0.5 μL) was added to control wells. The plate was briefly shaken to mix wells and then incubated at 37° C. overnight. The next day, the media was aspirated and cells were washed with Dulbecco's Phosphate Buffered Saline (Gibco). Cells were lysed using MPER lysis buffer (Pierce, Rockford, Ill.) containing Halt Phosphatase and Protease Inhibitors (Pierce, Rockford, Ill.) and Phosphatase inhibitor cocktail 2 (Sigma, St. Louis, Mo.) at 4° C. for 10 minutes with shaking.
(§2) Plate wells were washed with ELISA wash buffer. Cell lysate was added to wells and incubated at room temperature for 2 hours. Plate wells were washed with ELISA wash buffer. […] Plate wells were washed with ELISA wash buffer. […] Plate wells were washed with ELISA wash buffer. […] The reaction was stopped with 2N Sulfuric Acid. The plate was analyzed at on a plate reader measuring absorbance at 450 nm and 540 nm (background). Signal was calculated by first subtracting the background absorbance at 540 nm from the absorbance at 450 nm for each well. Next, the background corrected absorbance at 450 nm from blank wells was subtracted from test wells. Data was compared to control wells to determine % ATG13 phosphorylation. GraphPad Prism was used to calculate IC50 values.

Row | IC50 [nM] | Compound
1 | 10 to 100 | CN1CCN(c2ccc(Nc3ncc(C(F)(F)F)c(NCCCN4CCOCCC4=O)n3)c(C3CC3)c2)CC1 [Example 70]
2 | 10 to 100 | CCc1cc(N2CCN(C)CC2)c(F)cc1Nc1ncc(C(F)(F)F)c(NCCCN2CCOCCC2=O)n1 [Example 86]
3 | 100 to 300 | O=C1OCCCN1CCCNc1nc(Nc2ccc(N3CCNCC3)cc2C2CC2)ncc1C(F)(F)F [Example 99]
4 | 100 to 300 | CCc1cc(N2CCNCC2)ccc1Nc1ncc(C(F)(F)F)c(NCCCN2CCOCCC2=O)n1 [Example 84]
5 | 100 to 300 | CN1CCN(c2ccc(Nc3ncc(Cl)c(NCCCN4CCCOCC4=O)n3)c(C3CC3)c2)CC1 [Example 55]

The remaining lines, values behind:

Row | Compound | IC50 [nM]
6 | CCc1cc(N2CCNCC2)ccc1Nc1ncc(C(F)(F)F)c(NCCCN2CCCOC2=O)n1 [Example 46] | 100 to 300
7 | CN1CCN(c2ccc(Nc3ncc(C(F)(F)F)c(NCCCN4CCCOCC4=O)n3)c(C3CC3)c2)CC1 [Example 52] | 100 to 300
8 | CN1CCN(c2ccc(Nc3ncc(C(F)(F)F)c(NCCCN4CCCCC4=O)n3)c(C3CC3)c2)CC1 [Example 14] | 10 to 100
9 | CN1CCN(c2ccc(Nc3ncc(C(F)(F)F)c(NCCCN4CCCOC4=O)n3)c(C3CC3)c2)CC1 [Example 41] | 10 to 100
10 | CCc1cc(N2CCN(C)CC2)ccc1Nc1ncc(C(F)(F)F)c(NCCCN2CCCOC2=O)n1 [Example 39] | 10 to 100

These compounds were tested on ULK kinase (assay: pATG13 levels of mutant HRas T24 cells after treatment with ULK inhibitors in combination with trametinib (ELISA)). Settings: T24 urinary bladder cancer cells (mutant HRas), 250 nM trametinib, overnight, pS318-ATG13.
Type: cell-based, human
Description: as §1, with “T24” for “A375”, “urinary bladder” for “malignant melanoma”, “(25000” for “(20000”
as §2

Row | IC50 [nM] | Compound
11 | 10 to 100 | CN1CCN(c2ccc(Nc3ncc(C(F)(F)F)c(NCCCN4CCOCCC4=O)n3)c(C3CC3)c2)CC1 [Example 70]
12 | 100 to 300 | CCc1cc(N2CCN(C)CC2)c(F)cc1Nc1ncc(C(F)(F)F)c(NCCCN2CCOCCC2=O)n1 [Example 86]
13 | 100 to 300 | O=C1OCCCN1CCCNc1nc(Nc2ccc(N3CCNCC3)cc2C2CC2)ncc1C(F)(F)F [Example 99]
14 | 100 to 300 | CCc1cc(N2CCNCC2)ccc1Nc1ncc(C(F)(F)F)c(NCCCN2CCOCCC2=O)n1 [Example 84]
15 | 10 to 100 | CCc1cc(N2CCN(C)CC2)ccc1Nc1ncc(Br)c(NCCCN2CCOCCC2=O)n1 [Example 76]

More lines, now with the values behind:

Row | Compound | IC50 [nM]
16 | CCc1cc(N2CCNCC2)ccc1Nc1ncc(C(F)(F)F)c(NCCCN2CCCOC2=O)n1 [Example 46] | 100 to 300
17 | CCc1cc(N2CC3CCC(C2)N3C)ccc1Nc1ncc(C(F)(F)F)c(NCCCN2CCOCCC2=O)n1 [Example 74] | 10 to 100
18 | CN1CCN(c2ccc(Nc3ncc(C(F)(F)F)c(NCCCN4CCCCC4=O)n3)c(C3CC3)c2)CC1 [Example 14] | 10 to 100
19 | CN1CCN(c2ccc(Nc3ncc(C(F)(F)F)c(NCCCN4CCCOC4=O)n3)c(C3CC3)c2)CC1 [Example 41] | 10 to 100
20 | CCc1cc(N2CCN(C)CC2)ccc1Nc1ncc(C(F)(F)F)c(NCCCN2CCCOC2=O)n1 [Example 39] | 10 to 100

Each compound was assayed against T1, ULK2 kinase (Homo sapiens, UniProt Q8IYT8) (assay: Biochemical assay for ULK2 (coupled pyruvate kinase/lactate dehydrogenase assay)). Settings: 9.7 nM ULK2 (residues 1-306, GST and His tag), myelin basic protein, 1 mM ATP; read-out: ULK2.2.
T1 construct: purchased Eurofins 14-772
Description: Example 132. Biochemical Assay for ULK2 (SEQ. ID NO: 3)
Activity of ULK2 kinase was determined spectroscopically using a coupled pyruvate kinase/lactate dehydrogenase assay that continuously monitors the ATP hydrolysis-dependent oxidation of NADH (e.g., Schindler et al. Science (2000) 289: 1938-1942). Assays were conducted in 384-well plates (100 uL final volume) using 9.7 nM ULK2 (Eurofins CAT #14-772), 0.25 mg/mL myelin basic protein, 1.5 units pyruvate kinase, 2.1 units lactate dehydrogenase, 1 mM phosphoenol pyruvate, 0.28 mM NADH and 1 mM ATP in assay buffer (100 mM Tris, pH 7.5, 15 mM MgCl2, 0.5 mM DTT, 0.1% octyl-glucoside, 0.002% (w/v) BSA, and 0.002% Triton X-100). Inhibition of ULK2 was measured by adding serial diluted test compound (final assay concentration of 1% DMSO). A decrease in absorption at 340 nm was monitored continuously for 6 hours at 30° C. on a multi-mode microplate reader (BioTek). The reaction rate was calculated using the 2-3 h time frame. The reaction rate at each concentration of compound was converted to percent inhibition using controls (i.e. reaction with no test compound and reaction with a known inhibitor) and IC50 values were calculated by fitting a four-parameter sigmoidal curve to the data using Prism (GraphPad software).

T1 sequence (Q8IYT8 with tags, fused parts or gaps): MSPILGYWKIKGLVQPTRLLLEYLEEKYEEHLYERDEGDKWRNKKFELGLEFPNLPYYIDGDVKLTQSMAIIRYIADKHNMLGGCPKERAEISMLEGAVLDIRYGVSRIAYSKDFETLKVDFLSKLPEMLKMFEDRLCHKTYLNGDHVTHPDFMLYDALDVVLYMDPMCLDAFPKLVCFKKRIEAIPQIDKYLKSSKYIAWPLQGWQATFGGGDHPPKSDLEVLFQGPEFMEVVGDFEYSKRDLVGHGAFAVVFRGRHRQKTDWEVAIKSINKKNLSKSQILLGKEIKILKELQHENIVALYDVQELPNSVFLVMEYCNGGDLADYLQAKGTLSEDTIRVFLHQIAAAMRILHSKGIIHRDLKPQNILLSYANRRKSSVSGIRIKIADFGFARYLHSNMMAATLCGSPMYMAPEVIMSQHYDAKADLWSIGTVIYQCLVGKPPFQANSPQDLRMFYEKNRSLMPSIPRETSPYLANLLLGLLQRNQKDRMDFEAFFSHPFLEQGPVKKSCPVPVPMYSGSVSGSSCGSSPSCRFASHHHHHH

Row | IC50 [nM] | Compound
21 | 25 to 100 | CN1CCN(c2ccc(Nc3ncc(C(F)(F)F)c(NCCCN4CCOCCC4=O)n3)c(C3CC3)c2)CC1 [Example 70]
22 | 25 to 100 | O=C1OCCCN1CCCNc1nc(Nc2ccc(N3CCNCC3)cc2C2CC2)ncc1C(F)(F)F [Example 99]
23 | 25 to 100 | CCc1cc(N2CCNCC2)ccc1Nc1ncc(C(F)(F)F)c(NCCCN2CCOCCC2=O)n1 [Example 84]
24 | 100 to 500 | CN1CCN(c2ccc(Nc3ncc(Cl)c(NCCCN4CCCOCC4=O)n3)c(C3CC3)c2)CC1 [Example 55]

The next lines start with the compound.

Row | Compound | IC50 [nM]
25 | CCc1cc(N2CCNCC2)ccc1Nc1ncc(C(F)(F)F)c(NCCCN2CCCOC2=O)n1 [Example 46] | 25 to 100
26 | CN1CCN(c2ccc(Nc3ncc(C(F)(F)F)c(NCCCN4CCCOCC4=O)n3)c(C3CC3)c2)CC1 [Example 52] | 25 to 100
27 | CCc1cc(N2CC3CCC(C2)N3C)ccc1Nc1ncc(C(F)(F)F)c(NCCCN2CCOCCC2=O)n1 [Example 74] | 1 to 25
28 | CN1CCN(c2ccc(Nc3ncc(C(F)(F)F)c(NCCCN4CCCCC4=O)n3)c(C3CC3)c2)CC1 [Example 14] | 1 to 25
29 | CN1CCN(c2ccc(Nc3ncc(C(F)(F)F)c(NCCCN4CCCOC4=O)n3)c(C3CC3)c2)CC1 [Example 41] | 25 to 100
30 | CCc1cc(N2CCN(C)CC2)ccc1Nc1ncc(C(F)(F)F)c(NCCCN2CCCOC2=O)n1 [Example 39] | 25 to 100

These compounds were tested against T2, ULK1 kinase (Homo sapiens, UniProt O75385) (assay: Biochemical assay for ULK1.2 (coupled pyruvate kinase/lactate dehydrogenase assay)). Settings: 19 nM ULK1 (residues 1-314, His tag), myelin basic protein, 1 mM ATP.
T2 construct: purchased Eurofins 14-959
T2 sequence (O75385 with tags, fused parts or gaps): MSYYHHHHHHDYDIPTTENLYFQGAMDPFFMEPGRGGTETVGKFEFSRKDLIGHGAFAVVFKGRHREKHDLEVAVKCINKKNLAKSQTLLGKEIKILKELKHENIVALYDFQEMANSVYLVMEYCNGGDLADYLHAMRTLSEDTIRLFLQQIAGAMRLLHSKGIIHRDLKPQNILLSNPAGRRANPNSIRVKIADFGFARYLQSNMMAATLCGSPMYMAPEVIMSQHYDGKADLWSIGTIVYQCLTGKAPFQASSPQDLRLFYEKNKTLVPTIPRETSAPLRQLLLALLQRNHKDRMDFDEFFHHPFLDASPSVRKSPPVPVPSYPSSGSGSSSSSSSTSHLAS
Method in brief: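 Coupled assay followed the fall in absorbance at 340 nm continuously for 6 hours at 30 °C, with compounds serially diluted at 1% DMSO final. Rates from the 2–3 h window were normalised to no-compound and reference-inhibitor controls. IC50 came from a four-parameter sigmoidal fit.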

Row | IC50 [nM] | Compound
31 | 1 to 25 | CN1CCN(c2ccc(Nc3ncc(C(F)(F)F)c(NCCCN4CCOCCC4=O)n3)c(C3CC3)c2)CC1 [Example 70]
32 | 1 to 25 | CCc1cc(N2CCN(C)CC2)ccc1Nc1ncc(Br)c(NCCCN2CCOCCC2=O)n1 [Example 76]
33 | 100 to 500 | CN1CCN(c2ccc(Nc3ncc(Cl)c(NCCCN4CCCOCC4=O)n3)c(C3CC3)c2)CC1 [Example 55]

The remaining lines, values behind:

Row | Compound | IC50 [nM]
34 | CN1CCN(c2ccc(Nc3ncc(C(F)(F)F)c(NCCCN4CCCOCC4=O)n3)c(C3CC3)c2)CC1 [Example 52] | 1 to 25
35 | CN1CCN(c2ccc(Nc3ncc(C(F)(F)F)c(NCCCN4CCCCC4=O)n3)c(C3CC3)c2)CC1 [Example 14] | 1 to 25
36 | CCc1cc(N2CCN(C)CC2)ccc1Nc1ncc(C(F)(F)F)c(NCCCN2CCCOC2=O)n1 [Example 39] | 1 to 25
